Patent publication US5547965A, “Use of substituted amines for the treatment of brain function disorders” (Bayer Aktiengesellschaft, priority 1994, dated 1996)

The molecules below were run on rats (assay: rat forced swimming test). Conditions: po, 5 min, period of immobility over 5 minutes, administered between the two swimming tests.
Format: in vivo
Text: The activity of the substituted amines described in the treatment and prevention of affective disorders is confirmed with the aid of the "rat forced swimming test". This behavioural model was described for the first time by R. D. Porsolt et al. (Nature 266; 730, 1977) and today is a generally recognized in-vivo screening model for the discovery of new antidepressants. It is based on the observation that rats in a hopeless situation remain in an immobile position ("behavioural despair"). In a preliminary test, young adult rats (3-4 months old) are placed individually for 20 minutes in glass cylinders (height 40 cm, diameter 20 cm) which are filled with water to a height of 15 cm. 24 hours after this preliminary test, the animals are again transferred to the cylinders and the period of immobility is measured over a space of time of 5 minutes.
The substituted amines described are administered in the time interval between the two swimming tests. Controls receive the vehicle.
For `CC(=O)NCCN1CC([N+](=O)[O-])=C2N(Cc3ccc(Cl)nc3)CCN2C1` [Example 3], the ED50 was 4.1 mg/kg. `O=[N+]([O-])C=C1NCCN1Cc1cnc(Cl)s1` [Example 10] gave an ED50 of 1.5 mg/kg. Molecule `O=[N+]([O-])N=C1NCCN1Cc1cccnc1` [Example 12] has an ED50 of 2.5 mg/kg.

Each molecule was assayed against Nicotine receptor (assay: [3H]-cytisine displacement in rat brain membrane preparation). Conditions: negative common logarithm of the concentration giving 50% displacement of specifically bound [3H]-cytisine; rat brain homogenate, 22° C., 60 min.
Format: binding
Protocol: The effect on nicotinergic receptors of the central nervous system is determined by a generally customary standard method for receptor binding studies (E. C. Hulme, Editor, Receptor-Ligand Interactions, Oxford University Press, 1992, pp 1-458). The binding was measured here by displacement of [^3 H]-cytisine by the active compounds in the rat brain membrane preparation.
Rats were sacrificed by decapitation and the entire brain was then removed immediately and processed. All following steps were carried out with cooling to 4° C. The brain was homogenized in sucrose solution (110 g of sucrose/l; 20 ml of solution per 1 g of brain mass) with the aid of a mixer. Coarse constituents were removed by centrifugation of the homogenate for 10 min at 1200 g and subsequent filtration through 5 layers of muslin. The suspension which remained (called homogenate in the following) was frozen and stored at -20° C. until use.
Buffer A for the test batch: 100 mM K2 HPO4 /KH2 PO4, pH 7.4, containing 1 g/ of bovine serum albumin.
For the determination of the displacement of [^3 H]-cytisine by the active compounds the following batch (1 ml total volume) was mixed together: 250 μl of thawed homogenate, 600 μl of buffer, 100 μl of active compound solution in buffer A (containing a concentration series in dilution steps with a factor of 10 between a maximum of 10^-2 M and a minimum of 10^-10 M of active compound, and 2 μl of methanol, from a concentrated stock solution of the active compounds), 50 μl of (^3 H)-cytisine solution in buffer A (containing 1.48 pmol of (^3 H)-cytisine, corresponding to 1.67 KBq, and 5 μl of ethanol, from a concentrated stock solution). In controls which contained no homogenate or no active compound, the missing volume was replaced by buffer A.
The batches were incubated at 22° C. in a shaking water bath for 60 min. To end incubation of the batches, 3 ml of ice-cold buffer A was added in each case and the whole solution was rapidly filtered through GF/C glass fibre filters. The filters were premoistened with a 1% strength solution of Prosil in buffer A. The filters were also washed twice with 3 ml of ice-cold buffer A each time. The filters were then removed and the radioactivity bound to the filters was determined in a liquid scintillation apparatus after addition of 10 ml of suitable scintillation cocktail.
All values were determined in duplicate and averaged. The concentration of active compound which leads to a 50% displacement of the specifically bound [^3 H]-cytisine was calculated from the concentration series by a logit transformation or by the 4-parameter logistic model (T. Chard; An Introduction to Radioimmunoassay and Related Techniques; Elsevier, Amsterdam, 1990; pp 613-171; statistical assessment by computer). The negative common logarithm of this concentration is called the pI50 in the following.
Molecule `CC(=O)NCCN1CC([N+](=O)[O-])=C2N(Cc3ccc(Cl)nc3)CCN2C1` [Example 3] has a pI30 of 6.5. `N#CC=C1NCCN1Cc1ccc(Cl)nc1` [Example 11] showed a pI30 of 5.8. `O=[N+]([O-])C=C1NCCN1c1ccc(Cl)nc1` [Example 16] gave a pI30 of 4.6. `O=[N+]([O-])C=C1OCCN1Cc1ccc(Cl)nc1` [Example 14] gave a pI30 of 6.4. In the case of `O=[N+]([O-])C=C1NCCN1Cc1cnc(Cl)s1` [Example 10], the pI30 is reported as 6.2. `O=[N+]([O-])C=C1NCCN1Cc1ccc(Cl)c(F)c1` [Example 2] was tested, and the pI30 was 5.3. Work on `CC(=NC#N)N(C)Cc1ccc(Cl)nc1` [Example 5] yielded a pI30 of 6.2. Molecule `Cc1ccc(CN2CCNC2=C[N+](=O)[O-])cn1` [Example 9] has a pI30 of 6.4. For `CN1CN(C)C(=N[N+](=O)[O-])N(Cc2ccc(Cl)nc2)C1` [Example 15], the pI30 was 5.2. Work on `COc1cccc(CN2CCN(Cc3ccc(Cl)nc3)C2=N[N+](=O)[O-])c1` [Example 4] yielded a pI30 of 5.1. Molecule `N#CC=C1CCCN1Cc1ccc(Cl)nc1` [Example 13] has a pI30 of 6.6. `NC(=N[N+](=O)[O-])N1CCN(Cc2ccc(Cl)nc2)C1` [Example 6] was tested, and the pI30 was 4.8. In the case of `O=[N+]([O-])C=C1NCCN1Cc1cccnc1` [Example 7], the pI30 is reported as 5.9. `O=[N+]([O-])N=C1NCCN1Cc1cccnc1` [Example 12] was tested, and the pI30 was 5.7. For `O=[N+]([O-])C=C1NCCN1Cc1ccncc1` [Example 8], the pI30 was 4.6. Molecule `CCCC(c1ccc(F)cc1)N1CNC(NCc2ccc(Cl)nc2)=C([N+](=O)[O-])C1` (stereo not shown) [Example 1] has a pI30 of 6.6.
